# According to US20250051347A1, “BIFUNCTIONAL CHIMERIC HETEROCYCLIC COMPOUND AND USE THEREOF AS ANDROGEN RECEPTOR DEGRADER” (Hinova Pharmaceuticals, Inc., priority 2021, published 2025):
# Target: T1, androgen receptor (AR) splicing variant AR-v7 (Homo sapiens, UniProt P10275)
# T1 construct: The degradation activity of compounds on AR-v7 in 22RV1 cells; host or cells: 22RV1 cells
# T1 sequence (P10275 1-644 isoform P10275-3): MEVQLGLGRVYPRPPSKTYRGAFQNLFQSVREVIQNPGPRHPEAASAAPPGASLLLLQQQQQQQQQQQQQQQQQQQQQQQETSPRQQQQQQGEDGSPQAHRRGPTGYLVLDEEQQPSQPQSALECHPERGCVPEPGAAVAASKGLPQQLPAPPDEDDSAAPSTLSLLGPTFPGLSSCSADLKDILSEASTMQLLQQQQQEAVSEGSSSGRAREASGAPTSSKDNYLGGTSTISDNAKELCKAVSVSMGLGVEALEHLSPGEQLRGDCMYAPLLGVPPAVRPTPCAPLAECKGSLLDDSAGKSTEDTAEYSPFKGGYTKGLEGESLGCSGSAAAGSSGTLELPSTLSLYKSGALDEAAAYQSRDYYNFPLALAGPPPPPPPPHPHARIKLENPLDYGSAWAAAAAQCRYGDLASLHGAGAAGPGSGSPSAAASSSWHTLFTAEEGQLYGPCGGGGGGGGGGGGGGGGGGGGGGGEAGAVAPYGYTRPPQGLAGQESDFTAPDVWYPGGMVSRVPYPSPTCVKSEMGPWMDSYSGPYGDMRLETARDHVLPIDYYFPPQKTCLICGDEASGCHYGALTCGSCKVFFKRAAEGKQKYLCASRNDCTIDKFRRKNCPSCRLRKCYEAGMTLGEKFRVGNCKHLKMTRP
# Assay: Degradation activity on androgen receptor splicing variant AR-v7 in 22RV1 cells (ELISA)
# Format: cell-based
# Conditions: AR-v7 degradation in 22RV1 cells, 48 h, class symbols
row,SMILES,DC50
1,CC(C)(c1ccc(OCc2ccnc(N3CC4(COC4)C3)n2)cc1)c1ccc(OC[C@H]2CCCN2Cc2ccc3c(c2)C(=O)N(C2CCC(=O)NC2=O)C3=O)cc1 (stereo partly shown) [Example 565],1 to 5 µM
2,"CC(=O)c1cc(COc2ccc(C(C)(C)c3ccc(OCCCCCCCCOCCCCNc4cccc5c4C(=O)N(C4CCC(=O)NC4=O)C5=O)cc3)cc2)ccn1 (stereo not shown) [Example 348, 4-((4-((8-(4-(2-(4-((2-acetylpyridin-4-yl)methoxy)phenyl)isopropan-2-yl)phenoxy)octyl)oxy)butyl)amino)-2-(2,6-dioxopiperidin-3-yl)isoindolin-1,3-dione]",1 to 5 µM
3,"CC(C)(c1ccc(OCCCCCCCCOCCCCNc2ccc3c(c2)C(=O)N(C2CCC(=O)NC2=O)C3=O)cc1)c1ccc(OCc2ccnc(NS(C)(=O)=O)n2)cc1 (stereo not shown) [Example 22, N-(4-((4-(2-(4-((8-(4-((2-(2,6-dioxopiperidin-3-yl)-1,3-dioxoisoindolin-5-yl)amino)butoxy)octyl)oxy)phenyl)propan-2-yl)phenoxy)methyl)pyrimidin-2-yl)methanesulfonamide]",0.101 to 1 µM
4,"CC(C)(c1ccc(OCc2ccnc(NS(C)(=O)=O)n2)cc1)c1ccc(OC2CN(c3cccc4c3C(=O)N(C3CCC(=O)NC3=O)C4=O)C2)cc1 (stereo not shown) [Example 47, N-(4-((4-(2-(4-((1-(2-(2,6-dioxopiperidin-3-yl)-1,3-dioxoisoindolin-4-yl)azetidin-3-yl)oxy)phenyl)propan-2-yl)phenoxy)methyl)pyrimidin-2-yl)methanesulfonamide]",0.101 to 1 µM
5,"CNC(=O)c1noc(COc2ccc(C(C)(C)c3ccc(OCCCNc4ccc5c(c4)C(=O)N(C4CCC(=O)NC4=O)C5=O)cc3)cc2)n1 (stereo not shown) [Example 137, 5-((4-(2-(4-(3-((2-(2,6-dioxopiperidin-3-yl)-1,3-dioxoisoindolin-5-yl)amino)propoxy)phenyl)propan-2-yl)phenoxy)methyl)-N-methyl-1,2,4-oxadiazol-3-carbonylaminomethane]",0.011 to 0.1 µM
6,CC(C)[C@H](COc1ccc(C(C)(C)c2ccc(OCc3ccnc(N4CC5(COC5)C4)n3)cc2)cc1)Nc1ccc2c(c1)C(=O)N(C1CCC(=O)NC1=O)C2=O (stereo partly shown) [Example 149],1 to 5 µM
7,"Cc1nc(-c2ccc(Oc3ccc(C(C)(C)c4ccc(O[C@H]5C[C@H](Nc6ccc7c(c6)C(=O)N(C6CCC(=O)NC6=O)C7=O)C5)cc4)cc3)cc2)no1 (stereo partly shown) [Example 332, 2-(2,6-dioxopiperidin-3-yl)-5-((1r,3r)-3-(4-(2-(4-(4-(5-methyl-1,2,4-oxadiazol-3-yl)phenoxy)phenyl)propan-2-yl)phenoxy)cyclobutyl)aminoisoindolin-1,3-dione]",0.011 to 0.1 µM
8,Cn1nc(C(F)(F)F)cc1-c1nccc(COc2ccc(C(C)(C)c3ccc(O[C@H]4C[C@@H](Nc5ccc6c(c5)C(=O)N(C5CCC(=O)NC5=O)C6=O)C4)cc3)cc2)n1 (stereo partly shown) [Example 462],0.101 to 1 µM
9,CC(C)(c1ccc(OCc2ccnc(OC3CCNCC3)n2)cc1)c1ccc(O[C@H]2C[C@@H](Nc3ccc4c(c3)C(=O)N(C3CCC(=O)NC3=O)C4=O)C2)cc1 (stereo partly shown) [Example 236],0.011 to 0.1 µM
10,"CC(C)(c1ccc(OCCCNc2cccc3c2C(=O)N(C2CCC(=O)NC2=O)C3=O)cc1)c1ccc(OCc2nc3ncccc3o2)cc1 (stereo not shown) [Example 443, 2-(2,6-dioxopiperidin-3-yl)-4-((3-(4-(2-(4-(oxazolo[4,5-b]pyridin-2-ylmethoxy)phenyl)propan-2-yl)phenoxy)propyl)amino)isoindolin-1,3-dione]",0.011 to 0.1 µM

# Results, then the compound that gave them:
row,DC50,SMILES
1,0.011 to 0.1 µM,"CC(C)(c1ccc(OCc2ccnc(N3CCC4(CC3)COC4)n2)cc1)c1ccc(O[C@H]2C[C@@H](Nc3ccc4c(c3)C(=O)N(C3CCC(=O)NC3=O)C4=O)C2)cc1 (stereo partly shown) [Example 87, 5-(((1s,3s)-3-(4-(2-(4-((2-(2-oxa-7-azaspiro[3.5]nonan-7-yl)pyrimidin-4-yl)methoxy)phenyl)propan-2-yl)phenoxy)cyclobutyl)amino)-2-(2,6-dioxopiperidin-3-yl)isoindolin-1,3-dione]"
2,0.011 to 0.1 µM,"CC(COc1ccc(C(C)(C)c2ccc(OCc3ccnc(N4CC5(COC5)C4)n3)cc2)cc1)Nc1ccc2c(c1)C(=O)N(C1CCC(=O)NC1=O)C2=O (stereo not shown) [Example 151, 5-((1-(4-(2-(4-((2-(2-oxa-6-azaspiro[3.3]heptan-6-yl)pyrimidin-4-yl)methoxy)phenyl)propan-2-yl)phenoxy)propan-2-yl)amino)-2-(2,6-dioxopiperidin-3-yl)isoindolin-1,3-dione]"
3,0.011 to 0.1 µM,CC(C)(c1ccc(Oc2ncc(-n3nccn3)cn2)cc1)c1ccc(O[C@H]2C[C@@H](Nc3ccc4c(c3)C(=O)N(C3CCC(=O)NC3=O)C4=O)C2)cc1 (stereo partly shown) [Example 329]
4,0.011 to 0.1 µM,Cc1nc(-c2nccc(Oc3ccc(C(C)(C)c4ccc(O[C@H]5C[C@@H](Nc6ccc7c(c6)C(=O)N(C6CCC(=O)NC6=O)C7=O)C5)cc4)cc3)n2)no1 (stereo partly shown) [Example 292]
5,0.011 to 0.1 µM,"NC(=O)c1noc(COc2ccc(C3(c4ccc(OCCCNc5ccc6c(c5)C(=O)N(C5CCC(=O)NC5=O)C6=O)cc4)CCC3)cc2)n1 (stereo not shown) [Example 352, 5-((4-(1-(4-(3-((2-(2,6-dioxopiperidin-3-yl)-1,3-dioxoisoindolin-5-yl)amino)propoxy)phenyl)cyclobutyl)phenoxy)methyl)-1,2,4-oxadiazol-3-carbonylamine]"
6,0.011 to 0.1 µM,CC(C)(c1ccc(OCc2ccnc(-c3cncs3)n2)cc1)c1ccc(O[C@H]2C[C@H](Nc3ccc4c(c3)C(=O)N(C3CCC(=O)NC3=O)C4=O)C2)cc1 (stereo partly shown) [Example 272]
7,0.011 to 0.1 µM,"CC(C)(c1ccc(OCc2ccnc(N3CC4(CCNCC4)C3)n2)cc1)c1ccc(O[C@H]2C[C@@H](Nc3ccc4c(c3)C(=O)N(C3CCC(=O)NC3=O)C4=O)C2)cc1 (stereo partly shown) [Example 85, 5-(((1s,3s)-3-(4-(2-(4-((2-(2,7-diazaspiro[3.5]nonan-2-yl)pyrimidin-4-yl)methoxy)phenyl)propan-2-yl)phenoxy)cyclobutyl)amino)-2-(2,6-dioxopiperidin-3-yl)isoindolin-1,3-dione]"
8,0.011 to 0.1 µM,CC(C)(c1ccc(OCc2ccc(F)c(-n3nccn3)n2)cc1)c1ccc(O[C@H]2C[C@H](Nc3ccc4c(c3)C(=O)N(C3CCC(=O)NC3=O)C4=O)C2)cc1 (stereo partly shown) [Example 287]
9,0.011 to 0.1 µM,"CC(C)(c1ccc(OCc2ccnc(N3CC4(COC4)C3)n2)cc1)c1ccc(OC2CCC(Nc3ccc4c(c3)C(=O)N(C3CCC(=O)NC3=O)C4=O)C2)cc1 (stereo not shown) [Example 563, 5-((3-(4-(2-(4-((2-(2-oxa-6-azaspiro[3.3]heptan-6-yl)pyrimidin-4-yl)methoxy)phenyl)propan-2-yl)phenoxy)cyclopentyl)amino)-2-(2,6-dioxopiperidin-3-yl)isoindolin-1,3-dione]"
10,0.011 to 0.1 µM,CC(C)(c1ccc(OCc2ccnc(N3CC4(CNC4)C3)n2)cc1)c1ccc(O[C@H]2C[C@@H](Nc3ccc4c(c3)C(=O)N(C3CCC(=O)NC3=O)C4=O)C2)cc1 (stereo partly shown) [Example 86]

# Same assay, conditions: AR-v7 degradation in 22RV1 cells, 48 h, numeric values
row,DC50,SMILES
1,5.27 µM,"CC(C)(c1ccc(OCCCCCCCCOCCCCNc2ccc3c(c2)C(=O)N(C2CCC(=O)NC2=O)C3=O)cc1)c1ccc(OCc2ccnc(N)n2)cc1 (stereo not shown) [Example 28, 5-((4-((8-(4-(2-(4-((2-aminopyrimidin-4-yl)methoxy)phenyl)propan-2-yl)phenoxy)octyl)oxy)butyl)amino)-2-(2,6-dioxopiperidin-3-yl)isoindolin-1,3-dione]"
2,> 10 µM,"CC(C)(c1ccc(OCCCCCCCCN2CC3(C2)CN(c2ccc4c(c2)C(=O)N(C2CCC(=O)NC2=O)C4=O)C3)cc1)c1ccc(OCc2ccnc(NS(C)(=O)=O)n2)cc1 (stereo not shown) [Example 30, N-(4-((4-(2-(4-((8-(6-(2-(2,6-dioxopiperidin-3-yl)-1,3-dioxoisoindolin-5-yl)-2,6-diazaspiro[3.3]heptan-2-yl)octyl)oxy)phenyl)propan-2-yl)phenoxy)methyl)pyrimidin-2-yl)methanesulfonamide]"
3,> 10 µM,"CC(C)(c1ccc(OCCCCCCCCOCCCCNc2ccc3c(c2)C(=O)N(C2CCC(=O)NC2=O)C3=O)cc1)c1ccc(N2CCc3cnc(N4CC5(COC5)C4)nc3C2)cc1 (stereo not shown) [Example 65, 5-((4-((8-(4-(2-(4-(2-(2-oxa-6-azaspiro[3.3]heptan-6-yl)-5,8-dihydropyrido[3,4-d]pyrimidin-7(6H)-yl)phenyl)propan-2-yl)phenoxy)octyl)oxy)butyl)amino)-2-(2,6-dioxopiperidin-3-yl)isoindolin-1,3-dione]"

row,SMILES,DC50
1,"CC(C)(c1ccc(OCc2ccnc(NS(C)(=O)=O)n2)cc1)c1ccc(OC2CCN(CCCCOCCCCNc3ccc4c(c3)C(=O)N(C3CCC(=O)NC3=O)C4=O)CC2)cc1 (stereo not shown) [Example 36, N-(4-((4-(2-(4-((1-(4-(4-(4-)((2-(2,6-dioxopiperidin-3-yl)-1,3-dioxoisoindolin-5-yl)amino)butoxy)butyl)piperidin-4-yl)oxy)phenyl)propan-2-yl)phenoxy)methyl)pyrimidin-2-yl)methanesulfonamide]",> 10 µM
2,"CC(C)(c1ccc(OCc2ccnc(NS(C)(=O)=O)n2)cc1)c1ccc(OCC2CCN(CCCCOCCCCNc3ccc4c(c3)C(=O)N(C3CCC(=O)NC3=O)C4=O)C2)cc1 (stereo not shown) [Example 13, N-(4-((4-(2-(4-((1-(4-(4-(4-)((2-(2,6-dioxopiperidin-3-yl)-1,3-dioxoisoindolin-5-yl)amino)butoxy)butyl)pyrrolidin-3-yl)methoxy)phenyl)propan-2-yl)phenoxy)methyl)pyrimidin-2-yl)methanesulfonamide]",6.97 µM
